Measured values: PubChem BioAssay (NCI)
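Following 48 hours of exposure in 96-well plates, responses at five concentrations were used to interpolate endpoints linearly. GI50 = concentration required for 50% inhibition of growth. TGI: concentration producing complete growth inhibition.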

What was measured:
Experiment in all cases: inhibition of tumour cell growth, NCI panel, 48 h
[1] = tested on: 786-0 renal
[2] = tested on: A498 renal
[3] = tested on: A549 NSCLC
[4] = tested on: ACHN renal
[5] = tested on: BT-549 breast
[6] = tested on: CAKI-1 renal
[7] = tested on: CCRF-CEM leukemia
[8] = tested on: COLO 205 colon
[9] = tested on: DU-145 prostate
[10] = tested on: EKVX NSCLC
[11] = tested on: HCC-2998 colon
[12] = tested on: HCT-116 colon
[13] = tested on: HCT-15 colon
[14] = tested on: HL-60(TB) leukemia
[15] = tested on: HOP-62 NSCLC
[16] = tested on: HOP-92 NSCLC
[17] = tested on: HS 578T breast
[18] = tested on: HT29 colon
[19] = tested on: IGROV1 ovarian
[20] = tested on: K-562 leukemia
[21] = tested on: KM12 colon
[22] = tested on: LOX IMVI melanoma
[23] = tested on: M14 melanoma
[24] = tested on: MCF7 breast
[25] = tested on: MDA-MB-231 breast
[26] = tested on: MDA-MB-435
[27] = tested on: MOLT-4 leukemia
[28] = tested on: NCI-H226 lung
[29] = tested on: NCI-H23 lung
[30] = tested on: NCI-H460 lung
[31] = tested on: NCI-H522 lung
[32] = tested on: NCI/ADR-RES ovarian
[33] = tested on: OVCAR-3 ovarian
[34] = tested on: OVCAR-4 ovarian
[35] = tested on: OVCAR-5 ovarian
[36] = tested on: PC-3 prostate
[37] = tested on: RPMI-8226 leukemia
[38] = tested on: RXF 393 renal
[39] = tested on: SF-268 CNS
[40] = tested on: SF-295 CNS
[41] = tested on: SF-539 CNS
[42] = tested on: SK-MEL-2 melanoma
[43] = tested on: SK-MEL-28 melanoma
[44] = tested on: SK-MEL-5 melanoma
[45] = tested on: SK-OV-3 ovarian
[46] = tested on: SN12C renal
[47] = tested on: SNB-19 CNS
[48] = tested on: SNB-75 CNS
[49] = tested on: SR leukemia
[50] = tested on: SW-620 colon
[51] = tested on: T-47D breast
[52] = tested on: TK-10 renal
[53] = tested on: U251 CNS
[54] = tested on: UACC-257 melanoma
[55] = tested on: UACC-62 melanoma
[56] = tested on: UO-31 renal
[57] = tested on: MALME-3M melanoma
[58] = tested on: OVCAR-8 ovarian

CNC(=O)c1cc(Oc2ccc(NC(=O)Nc3ccc(Cl)c(OC(F)(F)F)c3)c(F)c2)ccn1
GI50 [1]: 4.65 µM
TGI [1]: > 33.2 µM
GI50 [2]: 2.66 µM
TGI [2]: 11.4 µM
GI50 [3]: 2.03 µM
TGI [3]: > 33.2 µM
GI50 [4]: 1.33 µM
TGI [4]: > 33.2 µM
GI50 [5]: 3.17 µM
TGI [5]: 14 µM
GI50 [6]: 2.89 µM
TGI [6]: > 33.2 µM
GI50 [7]: 1.94 µM
TGI [7]: > 33.2 µM
GI50 [8]: 1.14 µM
TGI [8]: 7.65 µM
GI50 [9]: 4.24 µM
TGI [9]: > 33.2 µM
GI50 [10]: 1.55 µM
TGI [10]: 23.6 µM
GI50 [11]: 1.62 µM
TGI [11]: 7.08 µM
GI50 [12]: 1.15 µM
TGI [12]: 8.08 µM
GI50 [13]: 1.58 µM
TGI [13]: 18 µM
GI50 [14]: 1 µM
TGI [14]: 6.53 µM
GI50 [15]: 2.49 µM
TGI [15]: 29.3 µM
GI50 [16]: 1.53 µM
TGI [16]: 16.8 µM
GI50 [17]: 3.81 µM
TGI [17]: > 33.2 µM
GI50 [18]: 1.17 µM
TGI [18]: 13.5 µM
GI50 [19]: 2.3 µM
TGI [19]: 16.6 µM
GI50 [20]: 1.22 µM
TGI [20]: 8.22 µM
GI50 [21]: 1.17 µM
TGI [21]: 9.09 µM
GI50 [22]: 1.76 µM
TGI [22]: 25.2 µM
GI50 [23]: 1.02 µM
TGI [23]: 5.38 µM
GI50 [24]: 1.12 µM
TGI [24]: 7.17 µM
GI50 [25]: 1.26 µM
TGI [25]: 8.74 µM
GI50 [26]: 1.29 µM
TGI [26]: 10.9 µM
GI50 [27]: 1.19 µM
TGI [27]: 8.64 µM
GI50 [28]: 2.5 µM
TGI [28]: 21.4 µM
GI50 [29]: 0.913 µM
TGI [29]: 5.58 µM
GI50 [30]: 2.22 µM
TGI [30]: 17.6 µM
GI50 [31]: 0.971 µM
TGI [31]: 14.8 µM
GI50 [32]: 1.37 µM
TGI [32]: 5.22 µM
GI50 [33]: 1.78 µM
TGI [33]: 11 µM
GI50 [34]: 1.24 µM
TGI [34]: > 33.2 µM
GI50 [35]: 3.93 µM
TGI [35]: > 33.2 µM
GI50 [36]: 1.48 µM
TGI [36]: 19 µM
GI50 [37]: 1.32 µM
TGI [37]: 7.85 µM
GI50 [38]: 3.58 µM
TGI [38]: 18.9 µM
GI50 [39]: 2.44 µM
TGI [39]: 14.2 µM
GI50 [40]: 1.1 µM
TGI [40]: 5.25 µM
GI50 [41]: 3.38 µM
TGI [41]: 8.13 µM
GI50 [42]: 1.03 µM
TGI [42]: 5.86 µM
GI50 [43]: 1.01 µM
TGI [43]: 4.27 µM
GI50 [44]: 1.63 µM
TGI [44]: 5.46 µM
GI50 [45]: 4.32 µM
TGI [45]: > 33.2 µM
GI50 [46]: 2.05 µM
TGI [46]: 23 µM
GI50 [47]: 3.06 µM
TGI [47]: 20.7 µM
GI50 [48]: 5.35 µM
TGI [48]: 13.5 µM
GI50 [49]: 1.49 µM
TGI [49]: 7.99 µM
GI50 [50]: 2.13 µM
TGI [50]: > 33.2 µM
GI50 [51]: 0.814 µM
TGI [51]: 7.27 µM
GI50 [52]: 2.44 µM
TGI [52]: > 33.2 µM
GI50 [53]: 2.32 µM
TGI [53]: 13.7 µM
GI50 [54]: 1.19 µM
TGI [54]: 6.54 µM
GI50 [55]: 1.34 µM
TGI [55]: 10 µM
GI50 [56]: 1.07 µM
TGI [56]: 13.3 µM

C=C1CC(COc2cc(Cl)nc(N)n2)C1
GI50 [1]: 49.5 µM
GI50 [2]: 28.4 µM
TGI [2]: 96.8 µM
GI50 [3]: 33.9 µM
GI50 [4]: 14.5 µM
TGI [4]: 74.1 µM
GI50 [5]: 20.6 µM
GI50 [6]: 22.8 µM
TGI [6]: 89.3 µM
GI50 [7]: 69.6 µM
GI50 [8]: 21.1 µM
TGI [8]: 60.8 µM
GI50 [9]: 47.7 µM
GI50 [10]: 25.6 µM
GI50 [12]: 35.1 µM
GI50 [13]: 33 µM
GI50 [14]: 35.1 µM
GI50 [16]: 23.1 µM
TGI [16]: 71.5 µM
GI50 [17]: 49.9 µM
GI50 [18]: 37 µM
GI50 [19]: 84.1 µM
GI50 [20]: 40 µM
GI50 [21]: 25.5 µM
GI50 [57]: 93.3 µM
GI50 [24]: 39.4 µM
GI50 [25]: 30.1 µM
GI50 [27]: 40.2 µM
GI50 [28]: 42.5 µM
GI50 [29]: 38.6 µM
GI50 [30]: 55.6 µM
GI50 [31]: 27.6 µM
GI50 [32]: 33.4 µM
GI50 [33]: 28.6 µM
GI50 [34]: 67.8 µM
GI50 [35]: 66.9 µM
GI50 [58]: 43.7 µM
GI50 [37]: 21.7 µM
TGI [37]: 60.8 µM
GI50 [38]: 36.8 µM
GI50 [39]: 70.4 µM
GI50 [40]: 34.4 µM
GI50 [42]: 31.4 µM
GI50 [44]: 44.4 µM
GI50 [45]: 69.7 µM
GI50 [46]: 44.1 µM
GI50 [47]: 37.2 µM
GI50 [48]: 29.2 µM
GI50 [49]: 34.8 µM
GI50 [50]: 45.7 µM
GI50 [51]: 23.3 µM
GI50 [53]: 13.5 µM
GI50 [56]: 35.6 µM

COc1ccc(-c2cc(-c3cc(Cl)ccc3Cl)nc3nc(=S)[nH]c(N)c23)cc1
GI50 [1]: 20.1 µM
TGI [1]: 37.4 µM
GI50 [3]: 15.2 µM
TGI [3]: 41.8 µM
GI50 [4]: 27.1 µM
TGI [4]: 98.4 µM
GI50 [5]: 54.9 µM
TGI [5]: > 100 µM
GI50 [6]: 10.6 µM
TGI [6]: 62.1 µM
GI50 [7]: 26.6 µM
TGI [7]: > 100 µM
GI50 [8]: 85.7 µM
TGI [8]: > 100 µM
GI50 [9]: 48.8 µM
TGI [9]: > 100 µM
GI50 [10]: 28.5 µM
TGI [10]: > 100 µM
GI50 [11]: 23.1 µM
TGI [11]: 40.1 µM
GI50 [12]: 15.1 µM
TGI [12]: 28.4 µM
GI50 [13]: 17.5 µM
TGI [13]: > 100 µM
GI50 [15]: 14.9 µM
TGI [15]: 28.3 µM
GI50 [16]: 11.8 µM
TGI [16]: > 100 µM
GI50 [17]: 14.6 µM
TGI [17]: 74.8 µM
GI50 [18]: 37.8 µM
TGI [18]: > 100 µM
GI50 [19]: 9.34 µM
TGI [19]: > 100 µM
GI50 [21]: 26.8 µM
TGI [21]: > 100 µM
GI50 [22]: 14.2 µM
TGI [22]: 44.4 µM
GI50 [23]: 24 µM
TGI [23]: 45 µM
GI50 [24]: 20.1 µM
TGI [24]: > 100 µM
GI50 [25]: 3.62 µM
TGI [25]: 19.8 µM
GI50 [26]: 3.93 µM
TGI [26]: 17.6 µM
GI50 [27]: 6.36 µM
TGI [27]: > 100 µM
GI50 [29]: 22.1 µM
TGI [29]: 48.4 µM
GI50 [30]: 47.6 µM
TGI [30]: > 100 µM
GI50 [31]: 28.2 µM
TGI [31]: > 100 µM
GI50 [32]: 20.1 µM
TGI [32]: 45.2 µM
GI50 [33]: 45.1 µM
TGI [33]: > 100 µM
GI50 [34]: > 100 µM
TGI [34]: > 100 µM
GI50 [35]: 20.1 µM
TGI [35]: 51.4 µM
GI50 [36]: 24.8 µM
TGI [36]: > 100 µM
GI50 [37]: 14.3 µM
TGI [37]: > 100 µM
GI50 [39]: 57.7 µM
TGI [39]: > 100 µM
GI50 [40]: 17.1 µM
TGI [40]: 46.5 µM
GI50 [41]: 27 µM
TGI [41]: 82.9 µM
GI50 [42]: 81.7 µM
TGI [42]: > 100 µM
GI50 [43]: 99.3 µM
TGI [43]: > 100 µM
GI50 [44]: 18.2 µM
TGI [44]: 94.6 µM
GI50 [45]: 47.2 µM
TGI [45]: > 100 µM
GI50 [46]: 19.1 µM
TGI [46]: 65.7 µM
GI50 [47]: 58.1 µM
TGI [47]: > 100 µM
GI50 [48]: 82.7 µM
TGI [48]: > 100 µM
GI50 [50]: 38.7 µM
TGI [50]: > 100 µM
GI50 [51]: > 100 µM
TGI [51]: > 100 µM
GI50 [52]: 7.35 µM
TGI [52]: 38.5 µM
GI50 [53]: 22.1 µM
TGI [53]: 72.1 µM
GI50 [55]: 6.94 µM
TGI [55]: > 100 µM
GI50 [56]: 58.1 µM
TGI [56]: > 100 µM
